Legend:
Cryptosporidium parvum = assay: Cytopathic effect (CPE) based assay, C. parvum infected HCT-8 cells; settings: HCT-8 host cell viability (CellTiter-Glo), 48 hours treatment, read-out: Cp CPE EC50
Method: Human ileocecal colorectal adenocarcinoma cells (HCT-8 [HRT-18] ATCC, CCL-34) were maintained in T-175 flasks (Corning, 431080) in complete growth medium (RPMI-1640 medium (Gibco, 11875) supplemented with 10% heat-inactivated horse serum (Gibco, 26050), 1×MEM non-essential amino acids (Gibco, 11140), 10 mM HEPES (Gibco, 15630), 100 units/mL penicillin, and 100 units/mL streptomycin) at 37° C. and 5% CO2 in a humidified incubator. Cultures were passaged twice weekly using 10 mL of 1×Phosphate-Buffered Saline (PBS) without Ca^2+ and Mg^2+ (Gibco, 20012) for washing and 3-5 mL per T-175 flask of TrypLE Express Enzyme (Gibco, 12604) for dissociation of adherent cells.
Cryptosporidium parvum oocysts purchased from the Sterling Laboratory, University of Arizona (Iowa isolate) were purified from infected calf feces using discontinuous sucrose and cesium chloride centrifugation gradients and stored in PBS solution containing 0.01% Tween 20, 100 units/mL penicillin and 100 units/mL gentamicin.
Excystation and infection protocols were developed following established methods with some modifications (Gut & Nelson, 1999, Upton et aL, 1995, Bessoff et aL, 2013). Briefly, oocysts were primed in 1 mL of 10 mM hydrochloric acid in 1× Hank's Balanced Salt Solution (HBSS) (Gibco, 14025) for 10 minutes with agitation at 1000 rpm, 37° C. on an Eppendorf thermomixer, then washed twice with 1 mL of room temperature non-acidic 1× HBSS by centrifugation at 13,000 rpm for 3 minutes at 25° C. Primed oocysts were further excysted at a concentration of 1×10^6 oocysts/μL in parasite infection medium consisting of a pre-warmed and pre-gassed 1:1 formulation of Leibovitz's L-15 medium (Gibco, 11415) and UltraCULTURE medium (Lonza, 12-725F) supplemented with 2 mM sodium taurocholate (Sigma, 86339-1), 10% heat-inactivated horse serum, and 200 μM L-ascorbic acid (Sigma, 95210) at 25° C. for 10 minutes. HCT-8 monolayer cells were infected with excysted cryptosporidium at a specified multiplicity of infection (MOI). All dilutions for subsequent assays were performed in parasite infection medium without sodium taurocholate. Pre-excysted oocysts were enumerated microscopically using a C-Chip disposable hemocytometer (NanoEnTek, DHC-N01).
Compound powders were dissolved in neat DMSO (Fisher, D4121) to 10 mM and stored at 4° C. prior to dilution into source plates. Dilutions were carried out using a Microlab STAR liquid handler (Hamilton) to obtain compound source plates containing the ten-point or eight-point three fold dilutions starting from 10 mM in duplicates. Source plates were stored at 4° C. prior to spotting into assay plates. Before administration, all compound source plates were equilibrated to room temperature. A specified volume of compounds from source plate were spotted to assay plate using an Echo Acoustic liquid handler (LABCYTE, 550) so that the final DMSO concentration was less than 0.5%. Each assay plate a specified number of DMSO-treated negative control wells and a well-studied potent active compound at 100 nM as positive control. As a quality control, all positive and negative-control wells were used to calculate a Z′-value and signal to noise ratio (S:N) for each plate.
Cryptosporidium spp are obligate-intracellular parasites that infect intestinal epithelial cells and the host cell is killed upon parasite egress. […] The loss of epithelial cells is due to both rapid parasite invasion/multiplication/egress and also pro-inflammatory immune response (Adams et al., 1994, Griffiths et al., 1994). We have observed a consistent cytopathic effect (CPE) in HCT-8 cells with C. spp infection the loss of viability of the host cells using CellTiter-Glo reagent.
Confluent HCT-8 cells in T-175 flasks were directly infected with excysted oocysts at an MOI (host to parasite) of 1:2 for C. parvum and 1:4 for C. hominis. The number of host-cells is determined using a NucleoCounter (Chemometec, NC-100) in a control flask. […]

C. parvum PI(4)K = C. parvum PI(4)K (Cryptosporidium parvum, UniProt Q5CVD3); assay: CpPI(4)K enzymatic assay (Transcreener ADP2 FP); assay type: biochemical
Text: The full-length coding sequence of C. parvum PI(4)K (cgd8_4500, 1114 amino acids) was codon-optimized for baculovirus expression, synthesized and cloned into pFastBac-HTb (Invitrogen 10584-027) in frame with the amino-terminal polyhistidine tag using the BamHI and Hindlll restriction sites. Recombinant pFastBacHTb-CpPI(4)K bacmid clones were generated by site-specific transposition in E. coli DH10Bac (Invitrogen 10361-012). The bacmid sequence was confirmed by direct DNA sequencing to confirm a lack of mutations across the whole gene. The subsequent steps for bacmid isolation, transfection and selection of the recombinant viruses were performed according to the manufacturer's protocol (Bac-to-Bac system #10359, Invitrogen).
SF9 cells, cultured in SF-900 III serum-free medium, were transfected with recombinant baculovirus at 1/200 (v/v) and incubated at 27° C. for 72 h. The pellets were collected after centrifugation and re-suspended in cell lysis buffer (20 mM Tris-HCl, pH 7.5, 300 mM NaCl, 1 mM DTT, 20 mM imidazole, 0.01% Triton X-100 and 1× complete protease inhibitor cocktail without EDTA (Roche Diagnostics 04693116001)). The cell suspension was lysed by sonication and the clarified supernatant was loaded onto a 1 ml HisTrap affinity column (GE Healthcare) pre-equilibrated with buffer A (20 mM Tris-HCl, pH 7.5, 300 mM NaCl, 1 mM DTT, 20 mM Imidazole, and 1× complete protease inhibitor cocktail without EDTA). The column was washed with buffer B (buffer A containing 45 mM imidazole) and the bound protein of interest was eluted with buffer C (buffer A with 90 mM imidazole). The fractions containing CpPI(4)K were pooled, concentrated using Amicon Ultra-15 and purified by a gel-filtration column (Hi-Load 26/60 Superdex 200, GE Healthcare) equilibrated with 20 mM Tris, pH 7.5, 300 mM NaCl, 1 mM DTT and 1× protease inhibitor cocktail without EDTA. The concentrations of the purified protein (Mw 132.39 kda) was determined by using the protein molar extinction coefficient (ε280 nm=133,810 M^−1 cm^−1). Aliquots were flash frozen in liquid nitrogen and immediately stored at −80° C.
The CpPI(4)K enzymatic assay was performed as described earlier with a some modifications (McNamara et al., 2013). Briefly, L-α-phosphatidylinositol (Avanti Polar Lipid 840046), dissolved in 3% n-octylglucoside (Roche Diagnostics 10634425001), was used as the lipid substrate for the PI(4)K activity assay. CpPI(4)K was assayed using Transcreener ADP2 FP detection kit (BellBrook 3010) in a black, solid 384-well plate (Corning 3575). The final assay volume was 10 μl and contained 3 nM of the respective CpPI(4)K construct in 10 mM Tris, pH 7.5, 1 mM DTT, 3 μM ATP, 5 mM Mn2+, 0.05% Triton X-100 and 10 μM phosphatidylinositol/octylglucoside. The enzyme reaction was performed for 50 minutes at room temperature and was stopped by adding 10 μl of detection mix containing 1× stop buffer (50 mM HEPES, pH7.5, 400 mM NaCl, 20 mM EDTA, and 0.02% Brij-35), 2 nM AMP Alexa Fluor 633 tracer, and 20 μg ml^−1 ADP antibody. Fluorescence polarization measurements were performed on the Infinite M1000 plate reader (Tecan) with λex=635 nm and λem=680 nm (20-nm bandwidth). IC50 values were calculated using Graphpad Prism software.
The inhibitory concentration (IC50) of selected compounds on the C. parvPI(4)K activity is provided in the third column [Cp_PI4K_enz IC50 (μM)] of Table II.

[1] = Cytotoxicity against HepG2; assay type: cell-based; settings: human, HepG2 cells (ATCC HB-8065), 5 days exposure
Method: Cytotoxicity against HepG2 (ATCC# HB-8065), a human liver cancer cell line, was determined as previously described earlier (Manjunatha et al., 2015). Briefly, cells were seeded at a density of 10^5 cells per well, incubated at 37° C. for 24 h and exposed to two-fold serially-diluted compounds for 5 days. Cell viability was monitored using the Cell Proliferation Kit II (Invitrogen). The cytotoxicity values of selected compounds are reported in the fifth column [HepG2 CC50 (μM)] of Table II.

Sequence of C. parvum PI(4)K (Q5CVD3 entry or part of it): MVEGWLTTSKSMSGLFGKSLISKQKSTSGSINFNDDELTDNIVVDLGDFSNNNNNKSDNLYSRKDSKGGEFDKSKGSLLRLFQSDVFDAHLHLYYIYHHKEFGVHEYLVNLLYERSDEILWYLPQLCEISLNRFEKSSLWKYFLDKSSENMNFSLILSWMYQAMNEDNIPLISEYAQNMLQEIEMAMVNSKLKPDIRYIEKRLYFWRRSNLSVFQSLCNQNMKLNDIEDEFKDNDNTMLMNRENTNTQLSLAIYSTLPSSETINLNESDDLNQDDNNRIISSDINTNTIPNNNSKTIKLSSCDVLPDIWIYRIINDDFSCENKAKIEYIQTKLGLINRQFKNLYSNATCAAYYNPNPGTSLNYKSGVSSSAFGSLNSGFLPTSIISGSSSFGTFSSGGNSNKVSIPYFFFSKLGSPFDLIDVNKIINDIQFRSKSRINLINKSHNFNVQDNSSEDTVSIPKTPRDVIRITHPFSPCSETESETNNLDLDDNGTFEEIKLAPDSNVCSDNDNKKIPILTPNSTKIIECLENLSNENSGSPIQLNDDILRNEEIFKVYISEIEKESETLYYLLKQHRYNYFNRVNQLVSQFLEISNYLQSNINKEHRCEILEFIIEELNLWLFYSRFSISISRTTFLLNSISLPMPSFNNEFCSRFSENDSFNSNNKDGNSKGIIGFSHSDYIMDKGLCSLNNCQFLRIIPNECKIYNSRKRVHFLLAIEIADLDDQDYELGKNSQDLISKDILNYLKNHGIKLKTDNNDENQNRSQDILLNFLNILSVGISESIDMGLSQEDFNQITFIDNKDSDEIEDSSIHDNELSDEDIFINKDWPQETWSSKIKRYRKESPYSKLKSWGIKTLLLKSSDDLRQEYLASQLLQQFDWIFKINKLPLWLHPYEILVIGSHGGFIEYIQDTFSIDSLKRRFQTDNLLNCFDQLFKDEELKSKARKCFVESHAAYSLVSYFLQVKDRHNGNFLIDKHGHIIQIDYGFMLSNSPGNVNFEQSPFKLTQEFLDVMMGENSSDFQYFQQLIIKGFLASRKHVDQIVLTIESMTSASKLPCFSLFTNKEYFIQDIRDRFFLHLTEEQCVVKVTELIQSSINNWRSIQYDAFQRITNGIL

CNC(=O)c1ccc(-c2cnn3ccc(C(=O)N(C)c4ccc(C#N)cc4)cc23)cn1 [Example 97]
EC50 (Cryptosporidium parvum): 241 nM
IC50 (C. parvum PI(4)K): 73 nM
CC50 at 5 days [1]: 31100 nM

CC(Cn1cccn1)N(C(=O)c1ccn2ncc(-c3ccc(C(N)=O)cc3)c2c1)c1ccc(C#N)cn1 (stereo not drawn) [Example 77]
EC50 (Cryptosporidium parvum): 582 nM
IC50 (C. parvum PI(4)K): 50 nM
CC50 at 5 days [1]: 29300 nM

CN(C(=O)c1ccn2ncc(-c3ccc(N)nc3)c2c1)c1ccc(C#N)cn1 [Example 54]
EC50 (Cryptosporidium parvum): 324 nM
IC50 (C. parvum PI(4)K): 74 nM
CC50 at 5 days [1]: > 50000 nM

CN(C(=O)c1ccn2ncc(-c3ccc(C(N)=O)cn3)c2c1)c1ccc(C#N)cc1 [Example 27]
EC50 (Cryptosporidium parvum): 815 nM
IC50 (C. parvum PI(4)K): 140 nM

CC(C)[C@H](N)C(=O)Nc1ccc(-c2cnn3ccc(C(=O)N(C)c4ccc(C#N)cc4)cc23)cc1 [Example 45]
EC50 (Cryptosporidium parvum): 332 nM
IC50 (C. parvum PI(4)K): 239 nM

CNC(=O)c1ccc(-c2cnn3ccc(C(=O)N(CC4CC4)c4ccc(C#N)cn4)cc23)cc1 [Example 117]
EC50 (Cryptosporidium parvum): 505 nM
IC50 (C. parvum PI(4)K): 7 nM
CC50 at 5 days [1]: 4330 nM

CNC(=O)c1ccc(-c2cnn3ccc(C(=O)N(c4ccc(C(F)(F)F)cn4)C4CC4)cc23)cc1 [Example 132]
EC50 (Cryptosporidium parvum): 89 nM
CC50 at 5 days [1]: 17300 nM

CN(C(=O)c1ccn2ncc(-c3cnc4[nH]ccc4c3)c2c1)c1ccc(C#N)cn1 [Example 53]
EC50 (Cryptosporidium parvum): 550 nM
IC50 (C. parvum PI(4)K): 47 nM

N#Cc1ccc(N(C(=O)c2ccn3ncc(-c4ccc(C(N)=O)cn4)c3c2)C2CC2)cc1 [Example 142]
EC50 (Cryptosporidium parvum): 379 nM
CC50 at 5 days [1]: 18300 nM

CN(C(=O)c1ccn2ncc(-c3ccc(C(N)=O)cc3)c2c1)C1CCC(C#N)CC1 (stereo not drawn) [Example 82]
EC50 (Cryptosporidium parvum): > 20000 nM
CC50 at 5 days [1]: > 50000 nM

CNC(=O)c1ccc(-c2cnn3ccc(C(=O)N(c4ccc(C#N)cc4)C4CC4)cc23)cn1 [Example 137]
EC50 (Cryptosporidium parvum): 350 nM
CC50 at 5 days [1]: 2190 nM

CCN(C(=O)c1ccn2ncc(-c3ccc(C(=O)NC)cc3)c2c1)c1ccc(F)cn1 [Example 95]
EC50 (Cryptosporidium parvum): 630 nM
CC50 at 5 days [1]: 13000 nM

N#Cc1ccc(N(CCO)C(=O)c2ccn3ncc(-c4ccc(C(N)=O)cc4)c3c2)cc1 [Example 105]
EC50 (Cryptosporidium parvum): > 20000 nM
CC50 at 5 days [1]: > 50000 nM

CNC(=O)c1ccc(-c2cnn3ccc(S(=O)(=O)N(C)c4ccc(C#N)cn4)cc23)cc1 [Example 163]
EC50 (Cryptosporidium parvum): 197 nM
CC50 at 5 days [1]: 8480 nM

CNCCNC(=O)c1ccc(-c2cnn3ccc(C(=O)N(C)c4ccc(C#N)cn4)cc23)cc1 [Example 114]
EC50 (Cryptosporidium parvum): 9130 nM
CC50 at 5 days [1]: 5520 nM

CN(C(=O)c1ccn2ncc(-c3cnc(N)c(C#N)c3)c2c1)c1ccc(C#N)cn1 [Example 85]
EC50 (Cryptosporidium parvum): 639 nM
CC50 at 5 days [1]: 30400 nM

CNC(=O)c1ccc(-c2cnn3ccc(C(=O)N(c4ccc(C(F)(F)F)cn4)C4CCC4)cc23)cn1 [Example 161]
EC50 (Cryptosporidium parvum): 775 nM
CC50 at 5 days [1]: 1220 nM

CNC(=O)c1ccc(-c2cnn3ccc(C(=O)N(c4ccc(C(N)=O)cn4)C4CC4)cc23)cc1 [Example 129]
EC50 (Cryptosporidium parvum): > 20000 nM
CC50 at 5 days [1]: > 50000 nM

CN(C(=O)c1ccn2ncc(-c3ccc(C(=O)NCCN)cc3)c2c1)c1ccc(C#N)cn1 [Example 104]
EC50 (Cryptosporidium parvum): 3610 nM
CC50 at 5 days [1]: > 50000 nM

CCN(C(=O)c1ccn2ncc(-c3ccc(S(=O)(=O)NC)cc3)c2c1)c1ccc(C#N)cn1 [Example 140]
EC50 (Cryptosporidium parvum): 10300 nM
CC50 at 5 days [1]: 26100 nM

CN(C(=O)c1ccc(C#N)cc1)c1ccn2ncc(-c3ccc(C(F)(F)F)cc3)c2c1 [Example 28]
EC50 (Cryptosporidium parvum): 2820 nM
CC50 at 5 days [1]: 9900 nM

N#Cc1ccc(N(C(=O)c2ccn3ncc(-c4ccc(C(N)=O)cn4)c3c2)C2CC2)nc1 [Example 139]
EC50 (Cryptosporidium parvum): 2070 nM
CC50 at 5 days [1]: 16700 nM

CNC(=O)c1ccc(-c2cnn3ccc(C(=O)N(c4ccc(C#N)cn4)C4CCC4)cc23)cn1 [Example 144]
EC50 (Cryptosporidium parvum): 1790 nM
CC50 at 5 days [1]: 7690 nM

NC(=O)c1ccc(-c2cnn3ccc(C(=O)N4CCOc5cc(F)ccc54)cc23)cc1 [Example 71]
EC50 (Cryptosporidium parvum): 571 nM
CC50 at 5 days [1]: 1820 nM

CN(C)C(=O)c1cc(-c2cnn3ccc(C(=O)N(C)c4ccc(C#N)cn4)cc23)cnc1N [Example 87]
EC50 (Cryptosporidium parvum): 415 nM
CC50 at 5 days [1]: > 50000 nM

CN(C(=O)c1ccn2ncc(-c3cnc(N)nc3)c2c1)c1ccc(C#N)cc1 [Example 83]
EC50 (Cryptosporidium parvum): 487 nM
CC50 at 5 days [1]: > 50000 nM

CCN(C(=O)c1ccn2ncc(-c3ccc(C(=O)NC)nc3)c2c1)c1ccc(C(F)(F)F)cn1 [Example 157]
EC50 (Cryptosporidium parvum): 295 nM
CC50 at 5 days [1]: 8960 nM

CNC(=O)c1ccc(-c2cnn3ccc(C(=O)N(c4ccc(C#N)cn4)C(C)C)cc23)cn1 [Example 148]
EC50 (Cryptosporidium parvum): 1860 nM
CC50 at 5 days [1]: 20100 nM
